Test results taken from patent US20100099719A1, “COMPOSITION AND METHOD FOR TREATING PROTEINURIA” (DIEREPHARMA, INC., priority 2008, published 2010).
Read-outs that look alike come from different tables or passages of the source.

Key:
TGF-β = TGF-β protein expression in kidney of rat UUO model (Western blot, densitometry); assay type: in vivo; conditions: obstructed kidney
Description: A. Western analysis of TGF-β protein expression. Two rats were sacrificed from groups of control sham operated, UUO, and UUO+AKF-PD at day 7 and day 15. Total protein was extracted from the kidney samples and subjected to Western analysis of TGF-β. The protein loading was normalized with actin. Lane 1, control sham at day 7; lane 2, control sham at day 15; lane 3, UUO at day 7; lane 4, UUO+AKF-PD at day 7; lane 5, UUO at day 15; lane 6, UUO+AKF-PD at day 15. B. Comparison of the intensity of bands on a Western blot by densitometry. The bands were scanned by densitometer and expressed as a fold increase over control sham operated rat at day 7, which was taken as 1.
TGF-β is a pro inflammatory cytokine and its overproduction plays critical role in tissue fibrosis. Using UUO model, we analyzed the effect of AKF-PD on TGF-β protein expression by Western blot. […] Densitometry analyses of the intensity of the bands indicate that TGF-β protein expression in obstructed kidneys was increased by 4.9- and 6.5-fold than those in the Sham group on Days 7 and 15, respectively.

rat renal fibroblasts = conditions: in vitro; cited from earlier work
rat UUO model = experiment: Unilateral ureteral obstruction (UUO) model, tubulointerstitial injury score; assay type: in vivo, SD rats; conditions: UUO rats; for Tubulointerstitial injury score (TIS): 500 mg/kg/d by gavage
Method: Kidney damage and fibrosis were induced by Unilateral Ureteral Obstruction in rat. The reno-protective effect of AKF-PD was evaluated in the rat UUO model.
Fixed tissues were dehydrated in graded alcohol and embedded in paraffin. Sections were stained with hematoxylin & eosin (HE) for general histology. Injury score was evaluated. On Day 7, the kidneys of rats subjected to ureteral obstruction developed a conspicuous tubulointerstitial injury characterized by tubular dilatation and atrophy, interstitial inflammation, and a marked interstitial fibrosis. The damage was more prominent on Day 15. Renal injury was ameliorated after treatments with AKF-PD as indicated by the lower tubulointerstitial injury scores and interstitial fibrosis expansion of these groups, with P<0.05 for all comparisons (Table 2).
Table 2. Comparison of histological scores for interstitial compartment. Eight weeks old male SD rats (180 g ˜220 g) were randomly divided into sham surgical group, disease model UUO group, and AKF-PD (500 mg/kg/d) group. […] The animals of the sham surgical group experienced the same surgical procedure except the ligation step. AKF-PD was administrated by gavage from one day prior to the procedure to 15 days post surgical procedure. Normal saline was administrated in a similar fashion to the rats in the groups of disease model and sham surgical. The animals were sacrificed 15 days after surgical procedure and their left kidney were removed for pathological (HE staining) examination. Histological scoring for interstitial compartment was done according to Radford's method (Predicting renal outcome in IgA nephropathy. J. Am. Soc. Nephrology, 1997; 8:199-207).

TNF-α = experiment: LPS-stimulated TNF-α protein synthesis and secretion in RAW264.7 cells (ELISA); assay type: cell-based, mouse; conditions: LPS 100 ng/ml 8 h; for inhibition at 300 µg/mL: dose of 300 μg/ml
Method: RAW264.7 cells were pre-treated with AKF-PD for 4 hours at the following doses: 0, 30 μg/ml, 100 μg/ml, and 300 μg/ml. Cells were then stimulated by the treatment with LPS at 100 ng/ml for 8 hours. Cell lysate was prepared from the harvested cells. Media from the cell culture were collected, concentrated 10-fold. Both cell lysate (B) and media (A) were subjected to ELISA assay (OptEIA™) specific for mouse TNF-α according to the manufacturer's instructions (BD Biosciences). Each column with error bar represents the average of triplicate TNF-α assay results and the standard deviation (SD). Statistical comparisons for AKF-PD treated cells relative to the controls indicate P<0.001 for secreted levels (A) at all three doses; and P<0.01 for cellular levels (B) at doses of 100 and 300 μg/ml, respectively.
The effect of AKF-PD on TNF-α protein synthesis and secretion was analyzed in LPS-stimulated RAW264.7 cells. Cells were pretreated with AKF-PD and then stimulated by LPS. Both secreted and cellular levels of TNF-α protein were determined. […] Therefore, the exposure of RAW264.7 cells to AKF-PD exerted a significant and dose-dependent suppression of levels of both cell-associated and secreted TNF-α protein.

TNF-α mRNA = experiment: LPS-stimulated TNF-α mRNA synthesis in RAW264.7 macrophages (real time PCR); assay type: cell-based, mouse; conditions: LPS 10 ng/ml 20 h; for inhibition of LPS-stimulated TNF-α mRNA synthesis: dose of 500 μg/ml; for inhibition on LPS-stimulated TNF-α mRNA synthesis: pre-treated 4 h at 10, 100, 500 μg/ml
Method: Mouse macrophage RAW264.7 cells were pre-treated with AKF-PD or PFD for 4 hours at the following doses: 0, 10 μg/ml, 100 μg/ml, and 500 μg/ml. Cells are then stimulated by treatment with LPS at 10 ng/ml for 20 hours. Expression of TNF-α mRNA is assayed by a quantitative real time PCR analysis using the TaqMan PCR core reagent kit (Applied Biosystems). TNF-α gene expression in the control non-treated cells was taken as 1 and regarded as control. All the other values were expressed as fold increase of the control. The mouse beta actin gene was used as endogenous control. Each column with error bar represents the mean mRNA level±SD of duplicate samples. Statistical comparisons for all three AKF-PD doses relative to control indicate p<0.01; PFD at the doses of 100 and 500 μg/ml relative to control indicate P<0.01.
We next investigated the effect of AKF-PD on TNF-α transcription.

[1] = system: streptozotocin-induced diabetic rats; experiment: Streptozotocin-induced diabetic nephropathy in rats; assay type: in vivo, Sprague-Dawley rats
Method: Diabetic kidney disease in the rat was induced by streptozotocin (STZ) to test the effectiveness of 5-methyl-2(1H)-pyridone (AKF-PD) in preserving kidney function by reducing the level of proteinuria.
Diabetic nephropathy was induced in Sprague-Dawley rats with a single intravenous injection of STZ (45 mg/kg). Streptozotocin was injected in a single dose of 45 mg/kg, i.v., to rats (Male Sprague-Dawley rats (200-250 g). Age-matched control rats received citrate buffer and were used in parallel with diabetic animals. Two days after STZ injection, plasma glucose levels were measured. Rats having plasma glucose levels>250 mg/dL after 4 weeks were selected for the study. Control and diabetic rats were divided into two groups, consisting of 6 animals each. AKF-PD was suspended in 0.5% sodium carboxy methylcellulose (CMC). From 4 to 8 weeks after the initial STZ injection, the first group of control animals received vehicle, and the second group received a suspension of AKF-PD (500 mg/kg per day) orally. Similarly, one group of diabetic rats received vehicle and the second group received AKF-PD (500 mg/kg per day). At the end of 8th week, rats were kept individually in metabolic cages for 24 h to collect urine for the measurements. Renal function was assessed by measuring plasma and urine levels of creatinine and urea and urine albumin excretion. Plasma glucose levels were also measured at 4 weeks and at the end of the experiment to investigate the effect of AKF-PD on glucose levels. Urinary proteins were measured by Bio-Rad protein assay (Bio-Rad, Hercules, Calif.). Blood urea nitrogen and creatinine levels were measured using Beckman analyzers (BUN Analyzer II, and Creatinine Analyzer II Beckman Instruments Inc., Brea, Calif.).

p38 = experiment: LPS-induced p38 activation in RAW264.7 macrophages (Western blot, phospho-p38); assay type: cell-based, mouse; conditions: RAW264.7 cells pretreated 100 and 500 μg/ml, 4 h; LPS 10 ng/ml, 30 min
Method: Mouse macrophage RAW264.7 cells were pretreated with AKF-PD (100 and 500 μg/ml, 4 h) or PFD (100 and 500 μg/ml, 4 h) and then exposed to LPS (10 ng/ml, 30 min). Total cell lysates were processed by SDS-PAGE and membranes blotted with a phosphospecific p38 and normalized with p38.
The MAPK family of proteins comprises of three-tiered cascades of Erk1/2, p38, and JNK. The p38 kinase is activated by phosphorylation of a conserved Thr-Gly-Tyr motif in the activation loop. The activated p38 is then able to phosphorylate a wide variety of targets in the cytoplasm and nucleus, resulting in cellular responses such as apoptosis, inflammation, and fibrosis. We first analyzed the anti-inflammatory properties of AKF-PD in p38 signaling in lipopolysaccharide (LPS)-stimulated mouse macrophages RAW264.7 cells. Cells are pre-treated with AKF-PD or pirfenidone (PFD) for 4 hours and then stimulated by treatment with LPS. […] No effects on total p38 protein levels were observed showing that AKF-PD and PFD have no effect on protein stability. […] The potential upstream targets for AKF-PD include upstream kinases MAPKK3 (MKK3) and MAPKK6 (MKK6).

[2] = system: patients with focal segmental glomerulosclerosis; conditions: cited from earlier work
[3] = system: mild chronic anti-GBM nephritis in rats; conditions: rat model of nephritis; cited from earlier work
[4] = DN (diabetic) rats + AKF-PD 500 mg/kg per day p.o., 4 weeks, mean ± SEM (n = 6)

Structure (SMILES): Cc1ccc(=O)n(-c2cccc(F)c2)c1 [AKF-PD, 1-(3′-Fluorophenyl)-5-Methyl-2(1H)-Pyridone]
- reduction of TGF-β protein expression (TGF-β; Day 7, UUO rats): 55%
- reduction of TGF-β protein expression (TGF-β; Day 15, UUO rats): 71%
- proliferation of rat renal fibroblasts (rat renal fibroblasts): inhibit the proliferation
- Tubulointerstitial injury score (TIS) (rat UUO model; Day 7): 2.64 ± 0.79 #
- Tubulointerstitial injury score (TIS) (rat UUO model; Day 15): 3.82 ± 0.43 #
- renal injury (tubulointerstitial injury scores and interstitial fibrosis expansion) (rat UUO model; P<0.05): ameliorated
- inhibition on TNF-α protein levels (TNF-α; 30, 100, 300 μg/ml pre-treatment 4 h): dose-dependent inhibition
- inhibition at 100 µg/mL (TNF-α; Mus musculus, dose of 100 μg/ml, read-out: inhibition of secreted levels of TNF-α): 64%
- inhibition at 300 µg/mL (TNF-α; Mus musculus, read-out: inhibition of cellular levels of TNF-α): ~50%
- inhibition at 300 µg/mL (TNF-α; Mus musculus, read-out: inhibition of secreted levels of TNF-α): 89%
- inhibition of LPS-stimulated TNF-α mRNA synthesis (TNF-α mRNA): Approximately 50%
- inhibition on LPS-stimulated TNF-α mRNA synthesis (TNF-α mRNA): dose-dependent inhibition
- Urine output ([1]; DN (diabetic) rats + AKF-PD 500 mg/kg per day p.o., 4 weeks, 24 h urine, mean ± SEM (n = 6)): 15.25 ± 1.75 mL
- Blood urea nitrogen [1, 4]: 18.88 ± 1.50 mg/dL
- Serum creatinine [1, 4]: 0.75 ± 0.13 mg/dL
- Urinary albumin excretion [1, 4]: 6.10 ± 0.23 mg/dL
- renal dysfunction in diabetic rats ([1]; diabetic rats, 500 mg/kg per day from 4 to 8 weeks): significantly attenuated
- LPS-induced p38 activation (phosphorylation) (p38): significantly blocked
- total p38 protein levels (p38): No effects

Structure (SMILES): Cc1ccc(=O)n(-c2ccccc2)c1 [PFD, pirfenidone, reference compound]
- effect on proteinuria ([2]; clinical data, open-label trial): does not have any effect
- monthly deterioration in GFR (median) ([2]; with pirfenidone therapy, 18 patients, median of 13-month treatment, baseline period −0.61): −0.45 ml/min per 1.73 m^2
- urinary protein excretion [3]: caused a decline
- inhibition of LPS-stimulated TNF-α mRNA synthesis (TNF-α mRNA): Approximately 50%
- inhibition on LPS-stimulated TNF-α mRNA synthesis (TNF-α mRNA): dose-dependent inhibition
- LPS-induced p38 activation (phosphorylation) (p38): significantly blocked
- total p38 protein levels (p38): No effects
